Results as given in US11707442B2, “Antibacterial and antifungal compounds” (The General Hospital Corporation, priority 2015, dated 2023).
≈ marks a conversion by molar mass, not a printed value. Entries after “also recorded” stand apart in the source; their conditions may differ. Where two headings read alike, the source gives them in different places.

Tests used:
S. aureus [1] = test: Disc clearing assay; format: cell-based, Staphylococcus aureus; details: result in words
Experimental: (§1) Disc clearing assay: The disc diffusion test was performed on Mueller Hinton (MH) agar plates for bacterial cultures and yeast extract, peptone, dextrose (YPD) for fungal cultures. The assay was repeated 3 times. Discs were soaked in 10 μl of either DMSO or 10 mg/ml compound stock solution and air-dried. Three hundred microliters of an overnight culture of bacteria or fungi were spread on plates. After completely drying the agar plate in a laminar flow hood, DMSO or compound impregnated discs were overlaid on the plate and incubated at 35° C. for 18 hrs.
The disc diffusion test was carried out in triplicate on cation-adjusted Miller-Hinton agar. 6 mm discs were impregnated with 50 μg of compounds and air-dried. Three hundred microliters of an overnight S. aureus MW2 culture was spread on an agar plate and air-dried. The antimicrobial discs were overlaid on the plate and incubated at 37° C. for 20 hrs.

E. faecium [2] = test: Disc clearing assay; format: cell-based, Enterococcus faecium; details: result in words
Experimental: as §1

A. baumannii = test: Disc clearing assay; format: cell-based, Acinetobacter baumannii; details: result in words
Experimental: as §1

B. subtilis = test: Disc clearing assay; format: cell-based, Bacillus subtilis; details: result in words
Experimental: as §1

E. faecalis = test: Disc clearing assay; format: cell-based, Enterococcus faecalis; details: result in words
Experimental: as §1

C. neoformans [3] = test: Disc clearing assay; format: cell-based, Cryptococcus neoformans; details: impregnated filter; result in words
Experimental: as §1

C. glabrata = test: Disc clearing assay; format: cell-based, Candida glabrata; details: result in words
Experimental: as §1

C. parapsilosis = test: Disc clearing assay; format: cell-based, Candida parapsilosis; details: result in words
Experimental: as §1

C. tropicalis = test: Disc clearing assay; format: cell-based, Candida tropicalis; details: result in words
Experimental: as §1

MRSA strain MW2 = test: Checkerboard assay (combination); format: cell-based, Staphylococcus aureus; details: result in words
Experimental: (§2) Checkerboard assay (e.g., antibiotic synergy test): The antimicrobial or antifungal activity of a combination of a compound of present application with other agents was determined through a checkerboard assay. The checkerboard method for determining synergy of synthetic retinoids with conventional antibiotics can be conducted, for example, as previously described (See, e.g., Rajamuthiah, R. et al. A defensin from the model beetle Tribolium castaneum acts synergistically with telavancin and daptomycin against multidrug resistant Staphylococcus aureus. PLoS ONE 10, e0128576 (2015)) The compounds whose combinations were being tested were arrayed in serial concentrations, vertically for one compound and horizontally for the other compound in the same 96 well microplate. 2-fold serial dilutions of each retinoid were combined with 2-fold serial dilutions of each conventional antibiotic, which created an 8×8 matrix in a 96-well microtiter plate. The rest of the procedure involving addition of pathogen and measurement of growth was carried out as described for measurement of MIC.
The Fractional Inhibitory Concentration (FIC) index for two compounds, A and B, is defined by the following equation: FIC=((A/MIC^A)+(B/MIC^B)). MIC^A and NIC^B are MICs of compound A or B respectively. (A) is the lowest concentration of compound A in combination with compound B that inhibits growth of a pathogen and (B) is the lowest concentration of compound B that inhibits growth of a pathogen.
Optical densities at 600 nm were measured after 18 h of incubation at 37° C. The results represent three independent experiments.

C. albicans = test: Static versus cidal assessment (MFC); format: cell-based, Candida albicans; details: result in words
Experimental: The minimum fungicidal concentration was (MFC) was determined as follows: 10 μl of yeast culture from each micro-well of the MIC assay was plated on YPD agar and incubated at 35° C. overnight. The lowest compound concentration at which there was no fungal colony growth was considered the MFC.

C. albicans biofilm = test: Biofilm growth on silicone pads; format: cell-based, Candida albicans; details: result in words
Experimental: C. albicans were grown in YPD medium overnight at 30° C., diluted to an OD600 of 0.5 in 2 mL Spider medium, and added to a well of a sterile 12-well plate containing a silicone pad measuring 1.5×1.5 cm that had been pretreated overnight with bovine serum (Sigma-Aldrich). The inoculated 12-well plate was incubated with gentle agitation (150 rpm) for 90 min at 37° C. for adhesion to occur. The samples were washed with 2 ml PBS, and after the 90-min incubation, and PBS wash, auranofin was added to fresh media at 4 μg/ml (n=4), 8 μg/ml (n=4), 16 μg/ml (n=4), and 32 μg/ml (n=4).
Control groups were included that contained C. albicans alone in Spider medium without auranofin (n=4) and a negative control group of Spider medium without any fungal cells (n=4).
The silicone pads with biofilm were removed from the wells, dried overnight, and weighed the following day. The total biomass (mg) of each biofilm was calculated by subtracting the weight of the platform material prior to biofilm growth from the weight after the drying period and adjusting for the weight of a control pad exposed to no cells.
Statistical significance among the different groups was determined by the analysis of variance (ANOVA) and the Tukey test using the Graph Pad Prism Program.

C. neoformans [4] = test: Checkerboard assay with oxidizing agents; format: cell-based, Cryptococcus neoformans; details: result in words
Experimental: as §2
(§3) The Fractional Inhibitory Concentration (FIC) index for two compounds, A and B, is defined by the following equation: FIC=((A/MIC^A)+(B/MIC^B)). MIC^A and NIC^B are MICs of compound A or B respectively. […]

[5] = Checkerboard assay of auranofin with amphotericin B and fluconazole; format: cell-based; details: result in words
Experimental: as §2, §3

[6] = tested on: S. aureus, E. faecium, and A. baumannii; test: Static versus cidal assessment (MBC); format: cell-based; details: result in words
Experimental: Static versus cidal assessment: The minimum bactericidal concentration (MBC) was determined as follows: 10 μl of bacterial culture from each micro-well of the MIC assay was plated on MH agar and incubated at 35° C. overnight. The lowest compound concentration at which there was no bacterial colony growth was considered the MBC.

E. faecium [7] = test: Checkerboard assay with glutathione; format: cell-based, Enterococcus faecium; details: result in words
Experimental: as §2, §3

S. aureus [8] = test: Minimal inhibitory concentration (MIC), broth microdilution; format: cell-based, Staphylococcus aureus; details: for MIC: Staphylococcus aureus, read-out: MIC
Summary of the method: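 MIC values against methicillin-resistant Staphylococcus aureus were determined by standard broth microdilution following Clinical and Laboratory Standards Institute guidance (CLSI document M07-A8). Each well held 100 μl of test compound plus bacterial cells in MH broth, with the starting OD600 set to 0.03. Plates were incubated 18 hrs at 35° C. and absorbance was then read at 595 nm.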

K. pneumoniae = test: Disc clearing assay; format: cell-based, Klebsiella pneumoniae; details: result in words
Experimental: as §1

P aeruginosa = test: Disc clearing assay; format: cell-based, Pseudomonas aeruginosa; details: result in words
Experimental: as §1

E. spp. = test: Disc clearing assay; format: cell-based, Enterobacter sp.; details: result in words
Experimental: as §1

human erythrocytes = test: Human blood hemolysis; format: cell-based; details: increasing concentrations; result in words
Experimental: Human blood hemolysis. Hemolytic activity of retinoids on human erythrocytes was evaluated using a previously described method with modifications (Rajamuthiah, R. et al. A defensin from the model beetle Tribolium castaneum acts synergistically with telavancin and daptomycin against multidrug resistant Staphylococcus aureus. PLoS ONE 10, e0128576 (2015)). 10% human erythrocytes were purchased from Rockland Immunochemicals (Limerick, Pa., USA). The erythrocytes were diluted to 4% with PBS, and 100 μl was added to 100 μl of two-fold serial dilutions of compounds in PBS, 0.2% DMSO (negative control), or 2% Triton-X 100 (positive control) in a 96-well plate. The 96-well plate was incubated at 37° C. for 1 h and then centrifuged at 500×g for 5 min. 100 μl of the supernatant was transferred to a fresh 96-well plate, and absorbance of supernatants was measured at 540 nm. Percent hemolysis was calculated using the following equation: (A540 nm of compound treated sample—A540nm of 0.1% DMSO treated sample)/(A540 nm of 1% Triton X-100 treated sample—A540nm of 0.1% DMSO treated sample)×100. HC50 (concentration of a compound causing 50% hemolysis) was determined using SigmaPlot 10.0 (Systat Software Inc., San Jose, Calif., USA).
In a 96 well plate, 50 μl of 2% human erythrocytes suspended in PBS was added to 50 μl of compounds serially diluted in PBS and incubated at 37° C. for 1 hour. The plate was then centrifuged at 500 G for 5 minutes and 50 μl of the supernatant from each well of the assay plate was transferred to a fresh 96 well plate. Hemolysis was confirmed by both visual observation and measuring absorbance at 540 nm. Treatment was conducted in triplicate.
2% human erythrocytes were treated with two-fold serially diluted concentration of the retinoids for 1 h at 37° C. A sample treated with 1% Triton-X 100 was used as the control for 100% hemolysis. Results are shown as means±s.d.; n=3.

HepG2 cells = test: Toxicity assay with HepG2 liver cells (WST-1); format: cell-based; details: 24 hours; result in words
Experimental: HepG2 cells were cultured in Dulbecco's modified Eagle medium (DMEM) containing 10% fetal bovine serum, 25 mM D-glucose, 2 mM L-glutamine, 1 mM sodium pyruvate and 1% penicillin/streptomycin and maintained at 37° C. in 5% CO2. For the toxicity test, HepG2 were cultured at 70-80% confluence in 96-well plates in a volume of 100 μl/well culture medium. Serially diluted chemical compounds were incubated with the cells at 37° C. in 5% CO2 for 24 hours. Ten microliters of 4-(3-(4-iodophenyl)-2-(4-nitrophenyl)-2H-5-tetrazolio)-1,3-benzene disulfonate (WST-1) solution were added per well for the last 4 hours of the 24 hours period. WST-1 reduction was detected using absorbance at 490 nm by a Vmax microplate reader. The percent […] relative to that of the no-treatment control was calculated. The assay was done in triplicate.

CC[P](CC)(CC)=[Au][S][C@@H]1O[C@H](COC(C)=O)[C@@H](OC(C)=O)[C@H](OC(C)=O)[C@H]1OC(C)=O [Auranofin, 2,3,4,6-tetra-o-acetyl-1-thio-D-glucanpyranosato-S-(triethyl-phosphine)-gold]
zone of inhibition, S. aureus (S. aureus [1]): zone of inhibition
zone of inhibition, E. faecium (E. faecium [2]): zone of inhibition
zone of inhibition, A. baumannii (A. baumannii): zone of inhibition
zone of inhibition, B. subtilis (B. subtilis): clearing; also recorded: zone of inhibition
zone of inhibition, E. faecalis (E. faecalis): clearing; also recorded: zone of inhibition
clearing of C. neoformans (C. neoformans [3]): clearing
zones of inhibition, C. glabrata (C. glabrata): zones of inhibition
zones of inhibition, C. parapsilosis (C. parapsilosis): zones of inhibition
zones of inhibition, C. tropicalis (C. tropicalis): zones of inhibition
interaction with hydrogen peroxide (MRSA strain MW2; S. aureus): did not provide any synergistic activity
static versus cidal activity against C. albicans (C. albicans): fungistatic
C. albicans biofilm formation (C. albicans biofilm): not significantly reduced
MIC change in the presence of menadione (C. neoformans [4]): no change in MIC
interaction with diamide and hydrogen peroxide (C. neoformans [4]): additive effect
interaction with amphotericin B and fluconazole [5]: additive effects but not synergism
static versus cidal nature of the inhibition [6]: bacteriostatic at the MIC concentration but bactericidal at higher concentrations

N[C@@H](CCC(=O)N[C@@H](CS)C(=O)NCC(=O)O)C(=O)O [Glutathione]
inhibition of S. aureus by the agent alone (MRSA strain MW2): did not inhibit
inhibition of E. faecium by the agent alone (E. faecium [7]): did not inhibit

CC1COc2c(N3CCN(C)CC3)c(F)cc3c(=O)c(C(=O)OCc4ccccn4)cn1c23 (stereo not shown) [Z3060, pyridin-2-ylmethyl 9-fluoro-3-methyl-10-(4-methylpiperazin-1-yl)-7-oxo-3,7-dihydro-2H-[1,4]oxazino[2,3,4-ij]quinoline-6-carboxylate]
MIC (S. aureus [8]; S. aureus (reference strain)): 2 µg/mL (≈ 4.42 µM)
MIC (S. aureus [8]; clinical isolates of S. aureus (Z3060)): 1 to 2 µg/mL (≈ 2.21 to 4.42 µM)
MIC change (S. aureus [8]; clinical isolates known to be drug resistant, result in words): increased
zone of inhibition, E. faecium (E. faecium [2]): zone of inhibition
zone of inhibition, K. pneumoniae (K. pneumoniae): zone of inhibition
zone of inhibition, A. baumannii (A. baumannii): zone of inhibition
zone of inhibition, P aeruginosa (P aeruginosa): zone of inhibition
zone of inhibition, E. spp. (E. spp.): zone of inhibition
toxicity (hemolysis) to erythrocytes (human erythrocytes): did not exhibit lysis
HepG2 cell viability (HepG2 cells): cell viability are maintained
